The text below walks through data of ChEMBL document CHEMBL1201862, “PubChem BioAssay data set” (2004).

Among the test systems are BT-549; SNB-78; DMS-273; KM-20L2; XF498; LXFL 529; DMS-114; HOP-18.
Experiment in all cases: growth of human tumour cells (NCI), 48 h

Molecules are shown by their SMILES.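 Each compound was tested at five concentrations against cells in 96-well plates for 48 hours. Abbreviation: GI50, concentration required for 50% inhibition of growth.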 Active and inactive are the calls of the source. No stated cut-off is given here; in the data, active = GI50 up to about 1.1 µM and inactive = higher. *1 amine or outer side, *2 acyl side, *3 side chain or, on linkers, in order; H or OH if unused. Where a SMILES comes first, the peptide text is derived from it. [ ]: non-standard residue; d: D form. The star is where a group is joined. ξ: configuration not given here. X53 = CC(C)C[C@H](N[*:1])C1=N[C@H](C(=O)[*:2])CS1; Ile(3ξ) = CCC(C)[C@H](N)C(=O)O; Allyl(1,1-Me2) = C=CC(C)(C)*

As for `COc1cc(C)c(S(=O)(=O)N(CCCN)OCCCN)c(C)c1C`, the GI50 in the experiment on BT-549 is 26.6 µM (inactive).
The same measure, in the same setting: for `CN(Cc1cccc2ccsc12)/N=C\c1ccc(Cl)cc1` the value was > 100 µM (inactive); for `CN(C)C1C(CO)OC(n2cnc3c(N)ncnc32)C1O` (centres undefined), > 100 µM (inactive).
Same read-out and setting: for `O=c1cc(NNc2ccccc2)[nH]c(=S)[nH]1` the value was 97.5 µM (inactive); for `NC(=S)C1=C(N)Oc2c(c(=O)oc3ccccc23)C1c1ccc(Br)cc1` (centres undefined), > 100 µM (inactive).
On the same count and under the same terms, to `S=C(/N=c1/sc(Nc2ccccc2)nc2sc3c(c12)CCCC3)Nc1ccccc1` belongs > 62.5 µM (inactive); to `CN1CCN(CC(=O)N2CCCn3c2nc2ccccc2c3=O)CC1`, > 100 µM (inactive); to `Cc1nc2c(o1)C(=O)c1ccccc1/C2=N/C1CCCCC1N` (centres undefined), 0.41 µM (active).
Take `O=C(/C=C/c1ccccc1)NC1C=Nc2ccc([N+](=O)[O-])cc2NC1=O` (centres undefined): the GI50 is > 100 µM (inactive) with SNB-78; 21.6 µM (inactive) in the experiment with DMS-273; 23.3 µM (inactive) with KM-20L2; > 100 µM (inactive) in the experiment with XF498; 34.7 µM (inactive) in the experiment with LXFL 529; 15.8 µM (inactive) in the experiment on DMS-114.
Take `O=C1C=C(Nc2cccnc2)c2ccccc2C1=O`: the GI50 in the experiment with HOP-18 was 10.3 µM (inactive); in the experiment with SNB-78, 15.5 µM (inactive); in the experiment with DMS-273, 6.81 µM (inactive); with BT-549 it was 1.44 µM (inactive); in the experiment with KM-20L2, > 43.2 µM (inactive); in the experiment on LXFL 529 it was 11.4 µM (inactive). In the experiment on DMS-114, the GI50 is 2.02 µM (inactive).
With `Cc1cccc(NC(=O)CC(=O)N2N=C(N3c4ccccc4Sc4ccccc43)CC2c2ccccc2)c1` (centres undefined), in the experiment on BT-549, the GI50 is > 100 µM (inactive).
On the same count and under the same terms, to `COc1c(Sc2c(SCSc3cnc4ccccc4c3Sc3cnc4ccccc4c3OC)cnc3ccccc23)cnc2ccccc12` belongs 54.5 µM (inactive); to `CC(C)=CCC[C@@H](C)c1c2nc3ccccc3[nH]c-2c(C)c(=O)c1O`, 2.63 µM (inactive).
Take `Nc1ccn(C2OC(COP(=O)(O)O)C(O)C2O)c(=O)n1` (centres undefined): the GI50 in the experiment on BT-549 was > 100 µM (inactive).
Still for that read-out and setting: to `S=C1NCCN1C(=S)NC1CCCCC1` belongs 21.4 µM (inactive).
Still for that read-out and setting: for `CCCC(CCN)(CCN)[N+](=O)[O-]` the value was > 100 µM (inactive).
With `C=CCNC(=S)N1CC(C)C(=O)Nc2ccccc21` (centres undefined), the GI50 in the experiment on SNB-78, with DMS-273, in the experiment on KM-20L2, in the experiment with XF498, with LXFL 529 and with DMS-114 was > 100 µM (inactive) in each case.
Turning to `COc1cc(C(c2c(O)c3ccccc3oc2=O)c2c(O)c3ccccc3oc2=O)cc(Br)c1O`, the GI50 with BT-549 is 17 µM (inactive).
Still for that read-out and setting: to `Cc1cc(OCc2nnc3n2S(=O)(=O)c2ccccc2N3C)ccc1Cl` belongs 18.2 µM (inactive).
Same read-out and setting: to `Cc1cc(-c2nc3cc(O)ccc3s2)ccc1N` belongs 45.8 µM (inactive); to `O=C1/C(=C/c2ccc(Cl)cc2)CSC/C1=C\c1ccc(Cl)cc1`, 2.21 µM (inactive); to `COc1cccc(CCNC(=O)Cc2ccccc2CCO)c1`, > 100 µM (inactive).
Consider `c1ccc2c(Cc3[nH]c4ccccc4c3Cc3c[nH]c4ccccc34)c[nH]c2c1`, for which the GI50 in the experiment on BT-549 is 5.57 µM (inactive).
Take `N#Cc1nc(C2OC(COC(=O)c3ccccc3)C(OC(=O)c3ccccc3)C2OC(=O)c2ccccc2)oc1N` (centres undefined): the GI50 was 10.7 µM (inactive) with HOP-18; 22 µM (inactive) in the experiment on SNB-78; 26.4 µM (inactive) in the experiment on DMS-273; 39 µM (inactive) in the experiment with KM-20L2; 28.9 µM (inactive) with DMS-114.
For `COc1cc2cccc(/N=C\c3ccccc3Cl)c2cc1OC`, the GI50 with HOP-18 is > 100 µM (inactive); with SNB-78, > 100 µM (inactive); with KM-20L2, > 100 µM (inactive); in the experiment with LXFL 529, > 100 µM (inactive); in the experiment with DMS-114, 35.2 µM (inactive).
In the case of `Oc1cc(O)cc(-c2nc3cc(F)ccc3s2)c1`, in the experiment with BT-549, the GI50 was 20.2 µM (inactive).
On the same count and under the same terms, for `CC(C)(C)N/N=C(\C(=O)NC1=C(Cl)C(=O)c2ccccc2C1=O)C1C=CCS1(=O)=O` (centres undefined) the value was 12.4 µM (inactive).
`COc1cc2c(cc1OC)C1Cc3cc(OC)c(OC)cc3N1CC2` (centres undefined): the GI50 was 39.8 µM (inactive) in the experiment on SNB-78; 38.6 µM (inactive) with KM-20L2; 18.5 µM (inactive) with XF498; 19.3 µM (inactive) in the experiment on LXFL 529; 15.1 µM (inactive) in the experiment with DMS-114.
With `CC(C)N1CCN(c2ccc(OCC3COC(Cn4cncn4)(c4ccc(Cl)cc4Cl)O3)cc2)CC1` (centres undefined) [TERCONAZOLE], the GI50 in the experiment with BT-549 was 14.4 µM (inactive).
The same measure, in the same setting: for `CN1N(c2ccccc2)C(=O)C2=NC=C(C#N)C(=N)C21C` (centres undefined) the value was > 100 µM (inactive).
For `CCN(CC)c1cccc2c1C1(O)CCC3(CC21)OCCCCO3` (centres undefined), the GI50 in the experiment on HOP-18 is > 100 µM (inactive); in the experiment on SNB-78 it was > 100 µM (inactive); in the experiment with DMS-273 it was > 100 µM (inactive); in the experiment with KM-20L2, 68.4 µM (inactive); with LXFL 529, > 100 µM (inactive); in the experiment on DMS-114, 94.6 µM (inactive).
Take `FC(F)(F)c1ccc(C2=N/S(c3ccccc3)=N\C(c3ccc(C(F)(F)F)cc3)=N/S(c3ccccc3)=N\2)cc1` (centres undefined): in the experiment with BT-549, the GI50 was > 100 µM (inactive).
With `CN(C)c1n/c(=N/c2ccc3ccccc3c2)ss1`, the GI50 in the experiment with HOP-18 is 25.3 µM (inactive); with SNB-78, 42.6 µM (inactive); in the experiment on DMS-273, > 10 µM (inactive); with KM-20L2 it was 29.6 µM (inactive); with LXFL 529, 9.1 µM (inactive); with DMS-114, 9.06 µM (inactive).
On to `Cc1c(-c2ccccc2)c(=O)oc2ccc(Cl)cc12`, for which the GI50 with HOP-18 is > 100 µM (inactive); with SNB-78 it was 26 µM (inactive); with DMS-273 it was 87.1 µM (inactive); in the experiment with LXFL 529 it was > 100 µM (inactive); in the experiment with DMS-114, 26.6 µM (inactive).
For `CCON1CC(C(=O)OC)=C(O)C1=O`, the GI50 in the experiment on BT-549 was > 100 µM (inactive).
Same read-out and setting: for `COc1ccc(-c2oc3c(OC)c(OC)cc(O)c3c(=O)c2OC)cc1` the value was > 100 µM (inactive); for `O=C1/C(=C/c2cccc(Br)c2)CSC/C1=C\c1cccc(Br)c1`, 2.13 µM (inactive).
Regarding `CCOC(=O)C(C(=O)Cc1ccccc1)c1ccccc1` (centres undefined), the GI50 in the experiment with SNB-78, with KM-20L2, in the experiment with XF498 and in the experiment on LXFL 529 was > 100 µM (inactive) throughout.
With `C[N+](C)([O-])Cc1cccc(NC(=O)c2ccc(C(=O)Nc3cccc(C[N+](C)(C)[O-])c3)cc2)c1`, the GI50 with BT-549 was > 100 µM (inactive).
On to `CC(=O)c1ccc(NC(=O)C(=O)Nn2c(S)nc3ccccc3c2=O)cc1`, for which the GI50 with HOP-18, with SNB-78, with KM-20L2, in the experiment with XF498, in the experiment with LXFL 529 and in the experiment with DMS-114 was > 100 µM (inactive) each time.
Regarding `Fc1ccc(C(OCCN2CC3CCC(C2)N3CCCc2ccccc2)c2ccc(F)cc2)cc1`, in the experiment with BT-549, the GI50 was 12.4 µM (inactive).
Still for that read-out and setting: to `O=C1C(Cl)=C(NCCN2CCOCC2)C(=O)c2ncccc21` belongs 1.79 µM (inactive); to `C=CC(C)(C)OC[C@@H]1NC(=O)CNC(=O)[C@@H]2CCCN2C(=O)[C@H](C(C)CC)NC(=O)[C@@H]2CSC(=N2)[C@H](CC(C)C)NC1=O` (some centres undefined) (cyclo(GS(Allyl(1,1-Me2))[X53][Ile(3ξ)]P)), 23.1 µM (inactive); to `CCO/C=N\c1c(C#N)c(-c2ccc(Cl)cc2)cn1-c1ccc(C)cc1`, > 100 µM (inactive).
On the same count and under the same terms, to `CN(C)C1C(O)=C(C(=O)NCN2CCCC2)C(=O)C2(O)C(O)=C3C(=O)c4c(O)cccc4C(C)(O)C3CC12` (centres undefined) belongs > 100 µM (inactive).
Still for that read-out and setting: to `COc1ccc(C(=O)/C=C/c2ccc(OCC(=O)O)cc2)cc1` belongs 38.6 µM (inactive); to `Cc1ccc(S(=O)(=O)NC(CCC(=O)NNc2ccccc2)C(=O)NNc2ccccc2)cc1` (centres undefined), > 100 µM (inactive).
Turning to `COc1cc2c(cc1OC)CCc1cc(OC)c(OC)cc1CC2`, the GI50 with BT-549 is > 100 µM (inactive).
The same measure, in the same setting: to `COC1C=COC2(C)Oc3c(C)c(O)c4c(O)c(c(C5SCCS5)c(O)c4c3C2=O)NC(=O)/C(C)=C\C=CC(C)C(O)C(C)C(O)C(C)C(OC(C)=O)C1C` (centres undefined) belongs 3.84 µM (inactive).
As for `CC1(C)C2CCC3(C2)CS(=O)(=O)N2OC231` (centres undefined), the GI50 in the experiment with HOP-18 was 17.6 µM (inactive); in the experiment with SNB-78, 25.5 µM (inactive); with DMS-273 it was 29.4 µM (inactive); with KM-20L2 it was 16.3 µM (inactive); in the experiment on LXFL 529 it was 16.7 µM (inactive); in the experiment with DMS-114, 12.2 µM (inactive).
On to `N#CCc1ccc(C(C#N)/C(CCCC(=O)Nc2cccc([N+](=O)[O-])c2)=N\NC(=O)NN)cc1` (centres undefined), for which the GI50 in the experiment on HOP-18, in the experiment on SNB-78, with DMS-273, in the experiment with KM-20L2, in the experiment on LXFL 529 and in the experiment with DMS-114 was > 100 µM (inactive) throughout.
Consider `Cc1nc2ccc(NC3OC(CO)C(O)C(O)C3O)cc2c(=O)n1-c1ccccc1` (centres undefined), for which, in the experiment with BT-549, the GI50 is > 100 µM (inactive).
The same measure, in the same setting: to `COc1cc2c(cc1O)NC(=O)[C@@H]1CCCN1C2=O` belongs > 100 µM (inactive); to `COc1cc(C(=O)/C=C/c2ccc(OCC#N)cc2)cc(OC)c1OC`, 17.7 µM (inactive).
On the same count and under the same terms, to `O=c1[nH]nc(-c2ccccc2)n1/N=C/c1ccccc1O` belongs > 100 µM (inactive); to `N=c1sc2ccccc2n1CC[S-].c1ccc2c(c1)sc1[n+]2CCS1`, 23.1 µM (inactive).
As to `O=C(CSc1nnc(Cc2ccccc2)o1)Nc1ccc(Cl)cc1Cl`, the GI50 with HOP-18, in the experiment with SNB-78, with DMS-273, in the experiment on KM-20L2, in the experiment with LXFL 529 and in the experiment on DMS-114 was > 100 µM (inactive) throughout.
Take `O=C(CC1(O)C(=O)Nc2ccccc21)c1ccccc1Cl` (centres undefined): the GI50 in the experiment with SNB-78, in the experiment on DMS-273, in the experiment with KM-20L2, with XF498, in the experiment on LXFL 529 and in the experiment on DMS-114 was > 100 µM (inactive) in each case.
As for `Cc1ccc(C2=Nc3ccccc3[S+]([O-])C(c3ccc4c(c3)OCO4)C2)cc1` (centres undefined), the GI50 was > 100 µM (inactive) in the experiment with HOP-18; 24.7 µM (inactive) in the experiment with SNB-78; 28.6 µM (inactive) with DMS-273; 17.4 µM (inactive) with KM-20L2; 16.5 µM (inactive) in the experiment on XF498; > 10 µM (inactive) in the experiment with LXFL 529.
